Several values for one entry are separate records, joined by “and”; a condition that tells them apart may be missing. Identical values can stand only once. Inconclusive results and toxic doses are left out. Cut-off read from the data, not from the text of the source: active = T/C of 150% or more; inactive = T/C below 125%.
System: L1210 leukemia ip in BDF1 mice, survival T/C
Test: NCI In Vivo Anticancer Drug Screen. Data for tumor model L1210 Leukemia (intraperitoneal) in B6D2F1 (BDF1) mice
Conditions: endpoint: mean survival time, higher = longer survival
Method in brief: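 Transplantable tumor model; survival measured in treated vs vehicle control mice. Value = treated/control.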

[1] = dose: 100.0 mg/kg/injection, schedule: Q01DX009 (ip), vehicle: saline with Tween-80
[2] = dose: 100.0 mg/kg/injection, schedule: Q04DX003 (ip), vehicle: saline with Tween-80
[3] = dose: 200.0 mg/kg/injection, schedule: Q01DX009 (ip), vehicle: saline with Tween-80
[4] = dose: 200.0 mg/kg/injection, schedule: Q04DX003 (ip), vehicle: saline with Tween-80
[5] = dose: 400.0 mg/kg/injection, schedule: Q01DX009 (ip), vehicle: saline with Tween-80
[6] = dose: 400.0 mg/kg/injection, schedule: Q04DX003 (ip), vehicle: saline with Tween-80
[7] = dose: 12.5 mg/kg/injection, schedule: Q01DX009 (ip), vehicle: Klucel (hydroxypropylcellulose) (HPC)
[8] = dose: 25.0 mg/kg/injection, schedule: Q01DX009 (ip), vehicle: Klucel (hydroxypropylcellulose) (HPC)
[9] = dose: 50.0 mg/kg/injection, schedule: Q01DX009 (ip), vehicle: Klucel (hydroxypropylcellulose) (HPC)
[10] = dose: 100.0 mg/kg/injection, schedule: Q01DX001 (ip), vehicle: saline
[11] = dose: 200.0 mg/kg/injection, schedule: Q01DX001 (ip), vehicle: saline
[12] = dose: 400.0 mg/kg/injection, schedule: Q01DX001 (ip), vehicle: saline
[13] = dose: 100.0 mg/kg/injection, schedule: Q01DX009 (ip), vehicle: Klucel (hydroxypropylcellulose) (HPC)
[14] = dose: 200.0 mg/kg/injection, schedule: Q01DX009 (ip), vehicle: Klucel (hydroxypropylcellulose) (HPC)
[15] = dose: 400.0 mg/kg/injection, schedule: Q01DX009 (ip), vehicle: Klucel (hydroxypropylcellulose) (HPC)
[16] = dose: 100.0 mg/kg/injection, schedule: Q04DX003 (ip), vehicle: Klucel (hydroxypropylcellulose) (HPC)
[17] = dose: 200.0 mg/kg/injection, schedule: Q04DX003 (ip), vehicle: Klucel (hydroxypropylcellulose) (HPC)
[18] = dose: 400.0 mg/kg/injection, schedule: Q04DX003 (ip), vehicle: Klucel (hydroxypropylcellulose) (HPC)

Measured: T/C

COc1ccc(/C(C)=C\C(=O)O)cc1
inactive: [1] 96 % of control | [2] 107 % of control | [3] 102 % of control | [4] 113 % of control | [5] 101 % of control | [6] 115 % of control

Cc1ccc(S(=O)(=O)OC2C(C(O)CO)OC3OC(C)(C)OC32)cc1 (stereo unspecified)
inactive: dose: 100.0 mg/kg/injection, schedule: Q04DX002 (ip), vehicle: saline with Tween-80 90 % of control | dose: 200.0 mg/kg/injection, schedule: Q04DX002 (ip), vehicle: saline with Tween-80 97 % of control | dose: 400.0 mg/kg/injection, schedule: Q04DX002 (ip), vehicle: saline with Tween-80 101 % of control

CC1(C)N=C(N)N=C(N)N1c1ccccc1I
inactive: [7] 100 % of control | [8] 110 % of control | [9] 97 % of control

C=Cc1ccc(O)cc1
inactive: [10] 103 % of control | [11] 106 % of control | [12] 98 % of control

NCC(=O)c1c[nH]c(=O)[nH]c1=O
inactive: dose: 25.0 mg/kg/injection, schedule: Q01DX001 (ip), vehicle: saline 107 % of control | dose: 50.0 mg/kg/injection, schedule: Q01DX001 (ip), vehicle: saline 100 % of control | [10] 97 % of control and 102 % of control | [11] 115 % of control | [12] 102 % of control

O=C(NCCCCCCCCNC(=O)N1CC1)N1CC1
inactive: dose: 0.19 mg/kg/injection, schedule: Q01DX009 (ip), vehicle: carboxymethylcellulose (CMC) 101 % of control | dose: 0.29 mg/kg/injection, schedule: Q01DX001 (ip), vehicle: carboxymethylcellulose (CMC) 98 % of control | dose: 0.29 mg/kg/injection, schedule: Q01DX009 (ip), vehicle: carboxymethylcellulose (CMC) 113 % of control | dose: 0.44 mg/kg/injection, schedule: Q01DX001 (ip), vehicle: carboxymethylcellulose (CMC) 95 % of control | dose: 0.44 mg/kg/injection, schedule: Q01DX009 (ip), vehicle: carboxymethylcellulose (CMC) 111 % of control | dose: 0.66 mg/kg/injection, schedule: Q01DX001 (ip), vehicle: carboxymethylcellulose (CMC) 96 % of control | dose: 0.66 mg/kg/injection, schedule: Q01DX009 (ip), vehicle: carboxymethylcellulose (CMC) 108 % of control | dose: 1.0 mg/kg/injection, schedule: Q01DX001 (ip), vehicle: carboxymethylcellulose (CMC) 101 % of control | dose: 1.0 mg/kg/injection, schedule: Q01DX009 (ip), vehicle: carboxymethylcellulose (CMC) 119 % of control | dose: 1.5 mg/kg/injection, schedule: Q01DX009 (ip), vehicle: carboxymethylcellulose (CMC) 109 % of control | dose: 2.25 mg/kg/injection, schedule: Q01DX009 (ip), vehicle: carboxymethylcellulose (CMC) 112 % of control | dose: 6.2 mg/kg/injection, schedule: Q01DX001 (ip), vehicle: carboxymethylcellulose (CMC) 102 % of control

CC(C)(C)SCCC(=O)NC1CCCCC1
inactive: dose: 50.0 mg/kg/injection, schedule: Q01DX009 (ip), vehicle: saline 90 % of control | dose: 100.0 mg/kg/injection, schedule: Q01DX009 (ip), vehicle: saline 95 % of control | dose: 100.0 mg/kg/injection, schedule: Q04DX003 (ip), vehicle: saline 106 % of control | dose: 200.0 mg/kg/injection, schedule: Q01DX009 (ip), vehicle: saline 93 % of control | dose: 200.0 mg/kg/injection, schedule: Q04DX003 (ip), vehicle: saline 101 % of control

NNC(=O)NN
inactive: [1] 87 % of control | [3] 90 % of control | [5] 87 % of control

C/C(=N/N(C)C)c1ccccn1
inactive: [1] 104 % of control | [2] 91 % of control | [3] 95 % of control | [4] 95 % of control | [6] 106 % of control

OCCSc1ncnc2nc[nH]c12
inactive: [2] 104 % of control | [4] 98 % of control | [6] 104 % of control

CCS(=O)(=O)/C=C/c1cccnc1
inactive: dose: 100.0 mg/kg/injection, schedule: Q04DX002 (ip), vehicle: saline 96 % of control | dose: 200.0 mg/kg/injection, schedule: Q04DX002 (ip), vehicle: saline 100 % of control | dose: 400.0 mg/kg/injection, schedule: Q04DX002 (ip), vehicle: saline 107 % of control

O=C(Nc1ccccc1C(F)(F)F)N(Cc1ccccc1)Cc1ccccc1
inactive: [13] 101 % of control | [14] 87 % of control | [15] 95 % of control

CCOC(=O)C1(C(=O)OCC)CCC(OCC)N1C(=O)c1cc(OC)c(OC)cc1[N+](=O)[O-] (stereo unspecified)
inactive: [16] 105 % of control | [17] 100 % of control | [18] 99 % of control

Nc1nc(=S)c2[nH]c(N=Nc3ccc(S(=O)(=O)Nc4nccs4)cc3)nc2[nH]1
inactive: dose: 6.25 mg/kg/injection, schedule: Q01DX009 (ip), vehicle: Klucel (hydroxypropylcellulose) (HPC) 92 % of control | [7] 92 % of control | [8] 100 % of control | dose: 35.0 mg/kg/injection, schedule: Q01DX001 (ip), vehicle: Klucel (hydroxypropylcellulose) (HPC) 119 % of control | dose: 100.0 mg/kg/injection, schedule: Q01DX001 (ip), vehicle: Klucel (hydroxypropylcellulose) (HPC) 123 % of control | [13] 88 % of control

O=C(OC/C(=C\Cl)OC(=O)c1ccc([N+](=O)[O-])cc1)c1ccc([N+](=O)[O-])cc1
inactive: [13] 100 % of control | [14] 105 % of control | [15] 100 % of control

O=C(Oc1ccc(N=Cc2ccccc2)cc1)Oc1ccc(N=Cc2ccccc2)cc1
inactive: [10] 86 % of control | [11] 86 % of control | [12] 95 % of control

C=C(Br)CNS(C)(=O)=O
inactive: dose: 6.25 mg/kg/injection, schedule: Q01DX009 (ip), vehicle: saline 106 % of control | dose: 12.5 mg/kg/injection, schedule: Q01DX009 (ip), vehicle: saline 95 % of control | dose: 12.5 mg/kg/injection, schedule: Q04DX003 (ip), vehicle: saline 98 % of control | dose: 25.0 mg/kg/injection, schedule: Q01DX009 (ip), vehicle: saline 96 % of control | dose: 25.0 mg/kg/injection, schedule: Q04DX003 (ip), vehicle: saline 104 % of control

CC(C)CNC(=O)CCc1ccc(N(CCCl)CCCl)cc1
inactive: [9] 109 % of control | [13] 117 % of control | [16] 120 % of control | [17] 102 % of control | [18] 112 % of control

COc1ccc(OC)c(CCCl)c1
inactive: dose: 100.0 mg/kg/injection, schedule: Q01DX001 (ip), vehicle: acetone 91 % of control | dose: 200.0 mg/kg/injection, schedule: Q01DX001 (ip), vehicle: acetone 93 % of control | dose: 400.0 mg/kg/injection, schedule: Q01DX001 (ip), vehicle: acetone 88 % of control

COc1ccc(O)c(C2(O)OC(=O)c3c(OC)cccc32)c1 (stereo unspecified)
inactive: dose: 100.0 mg/kg/injection, schedule: Q01DX001 (ip), vehicle: carboxymethylcellulose (CMC) 103 % of control and 111 % of control | dose: 100.0 mg/kg/injection, schedule: Q01DX009 (ip), vehicle: carboxymethylcellulose (CMC) 100 % of control and 89 % of control | dose: 100.0 mg/kg/injection, schedule: Q04DX002 (ip), vehicle: carboxymethylcellulose (CMC) 102 % of control and 113 % of control | dose: 100.0 mg/kg/injection, schedule: Q04DX003 (ip), vehicle: carboxymethylcellulose (CMC) 95 % of control and 100 % of control | dose: 200.0 mg/kg/injection, schedule: Q01DX001 (ip), vehicle: carboxymethylcellulose (CMC) 94 % of control and 106 % of control | dose: 200.0 mg/kg/injection, schedule: Q01DX009 (ip), vehicle: carboxymethylcellulose (CMC) 104 % of control and 89 % of control | dose: 200.0 mg/kg/injection, schedule: Q04DX002 (ip), vehicle: carboxymethylcellulose (CMC) 97 % of control | dose: 200.0 mg/kg/injection, schedule: Q04DX003 (ip), vehicle: carboxymethylcellulose (CMC) 94 % of control and 100 % of control | dose: 400.0 mg/kg/injection, schedule: Q01DX001 (ip), vehicle: carboxymethylcellulose (CMC) 94 % of control and 103 % of control | dose: 400.0 mg/kg/injection, schedule: Q04DX002 (ip), vehicle: carboxymethylcellulose (CMC) 97 % of control and 98 % of control | dose: 400.0 mg/kg/injection, schedule: Q04DX003 (ip), vehicle: carboxymethylcellulose (CMC) 95 % of control and 90 % of control

O=C1CCC(C(=O)NC(Cc2cncn2Cc2ccccc2)C(=O)NC(COCc2ccccc2)Cc2c[nH]c3ccccc23)N1 (stereo unspecified)
inactive: [1] 96 % of control | [3] 104 % of control | [5] 94 % of control

Source: PubChem BioAssay AID248 (DTP/NCI, 2004)
